Test results as given in patent publication US20090124579A1, “Systems and Methods For Determination of Compounds for Stimulation or Inhibition of Neocalcification” (UNIVERSITY OF SOUTH CAROLINA, priority 2007, published 2009).

Key:
[1] = test system: matrix vesicles (MV); test: Mineralization of matrix vesicles (MV) incubated in synthetic cartilage lymph (SCL), microplate-based biomineralization assay; format: biochemical, chicken
Experimental: Zn^2+ causes Anx-5 to bind to acidic phospholipids with even higher affinity than does Ca^2+; however, its effect is very different.
(§1) Mineral formation was measured by incubating MVs (40 μg protein/ml) or complex (60 μg/ml) in synthetic cartilage lymph and assayed by a microplate-based biomineralization modeling system and assay as described herein. MVs were isolated from chicken GP cartilage. The PS.Ca.Pi complex was synthesized from emulsions of PS prepared by sonication in a synthetic intracellular phosphate buffer. Where indicated, pure native placental human annexin 5 (Anx-H5) was added.
(§2) Incubation was in pH 7.5 SCL at 37° C., which follows a characteristic sigmoid pattern in which a definable lag period precedes discernible mineral formation. There then follows a period of rapid mineral formation, a transient period when the rate declines, and an extended period at a progressively slower rate.

[2] = target: T1, Anx-H5-containing ACP (Homo sapiens, UniProt P08758); test: Mineral formation by Anx-H5-containing ACP in SCL; format: biochemical; conditions: low levels (5 μM) of Zn^2+ in SCL
T1 sequence (P08758 2-320 limits assumed): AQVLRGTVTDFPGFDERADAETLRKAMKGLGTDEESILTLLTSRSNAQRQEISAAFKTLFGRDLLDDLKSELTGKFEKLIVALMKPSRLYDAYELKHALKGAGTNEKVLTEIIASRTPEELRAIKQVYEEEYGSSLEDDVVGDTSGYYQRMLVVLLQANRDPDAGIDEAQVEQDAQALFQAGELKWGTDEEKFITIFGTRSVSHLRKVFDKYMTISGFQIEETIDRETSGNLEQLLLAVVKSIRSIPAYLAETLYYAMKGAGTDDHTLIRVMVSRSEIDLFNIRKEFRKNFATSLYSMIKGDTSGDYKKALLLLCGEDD

[3] = target: T2, Anx-A5 Ca^2+ channel (Gallus gallus, UniProt P17153); test: Ca^2+ channel currents of MV or purified Anx-A5 fused with planar PS.PE (1:1) bilayers; format: biochemical, avian; conditions: MV or purified Anx-A5 in planar PS.PE (1:1) bilayers
T2 construct: from tissue; host or cells: avian cartilage
Experimental: To determine if the inhibitory effect of Zn^2+ on MV calcification was due to interaction with Anx-A5, experiments were conducted to investigate the nature of the MV Ca^2+ channel. […] When MVs or purified Anx-A5 were fused with planar PS.PE (1:1) bilayers, a multiconductance Ca^2+ channel was evident, as shown in FIG. 6A. […] The finding that Anx-A5 Ca^2+ channel gating is modulated by Zn^2+ raised the possibility that it may be an important regulator of MV Ca^2+ channel activity in vivo. Thus, it was desirable to determine how Anx-5 helps promote MV mineralization and how Zn^2+ affects the structure of Anx-A5.

[4] = test system: ACP; conditions: low levels of Zn^2+
[5] = target: T3, Anx-H5.PS.Ca.Pi complexes (Homo sapiens, UniProt P08758); test: Kinetics of mineralization of Anx-H5 containing nucleators with or without phosphoserine; format: biochemical; conditions: 100 μM phosphoserine; both Anx-H5-containing ACP and PS.Ca.Pi complexes
T3 sequence (P08758 2-320 limits assumed): T1 sequence (P08758 2-320 limits assumed)
From the text: Phosphoserine was examined as a test compound. Phosphoserine can occupy PS head-group binding sites in Anx-H5, acting as a competitive inhibitor of PS binding. […] Since Anx-H5 trimer formation occurs only on phospholipid bilayers, phosphoserine competes for PS binding sites in Anx-H5, interfering with trimer formation, and thereby inhibiting de novo mineralization.
FIG. 18 illustrates the results of in vitro assays showing the delay of onset of mineralization of Anx-H5 containing nucleators by incorporation of O-phospho-L-serine

[6] = test system: PS.PE.Ca.Pi and PS.Ca.Pi complexes; test: Mineral formation by synthetic PS and PE containing Ca.Pi complexes in SCL; format: biochemical
Experimental: FIG. 15 illustrates the effect of Anx-H5 on mineral formation by synthetic PS and PE containing Ca.Pi complexes as determined through in vitro modeling of the system. Mineralization was measured by incubating the various complexes as shown (about 50 μg/ml) in SCL using a microplate-based biomineralization assay system. The complexes were prepared as described above in Example 3. Emulsions of PS or PS.PE (1:1) were generated by sonication to generate approximately 60 nm vesicles. Anx-H5 was added before CaCl2 was titrated to form the complex.

[7] = test system: PS.Ca.Pi complex; test: Mineral formation by synthetic PS.Ca.Pi complex seeded into SCL, microplate-based biomineralization assay; format: biochemical
Experimental: as §1, §2
Results are illustrated in FIGS. 9A and 9B. […] To document that the effect of avian Anx-A5 could be equally matched by human Anx-H5, the kinetics of mineral formation were examined when both avian MV and the Mg^2+-containing PS.Ca.Pi complex were seeded into SCL in the absence and presence of purified native human placental Anx H5. […]

c1cnc2c(c1)ccc1cccnc12 [1,10-phenanthroline, reference compound]
ability of Zn^2+-inhibited MV to mineralize ([1]; metal ion chelator added to Zn^2+-inhibited MV): restored the ability to mineralize

[Zn+2] [Zn^2+, zinc]
mineral formation by Anx-H5-containing ACP [2]: marked inhibition | Ca^2+ currents [3]: blocked | MV mineralization ([1]; low levels of Zn^2+ (5 μM) in SCL): completely inhibit | ACP-induced mineral formation [4]: weak inhibition

N[C@@H](COP(=O)(O)O)C(=O)O [phosphoserine, O-phospho-L-serine]
time needed for onset of mineralization [5]: almost tripling

Anx-H5: pure native placental human annexin 5
ability of MV to induce and propagate mineral formation ([1]; Anx-H5 added to freshly isolated MV): significantly enhanced | effect on PS.PE.Ca.Pi-induced mineralization ([6]; Anx-H5 incorporated into PS.PE.Ca.Pi complex): overcome this inhibitory effect of PE | effect on mineral formation of incorporation into PS.Ca.Pi complex ([6]; complexes about 50 μg/ml in SCL): obvious stimulatory effect | mineral formation induced by protein alone ([7]; Anx-H5 by itself added to SCL, without PS): failed to induce any mineral formation

phosphatidylethanolamine [PE, reference compound]
ability of PS.Ca.Pi to nucleate mineral formation ([6]; equimolar amounts incorporated into PS.Ca.Pi (PS.PE 1:1)): profound inhibition

B1: Anx-A5: avian annexin 5 (avian cartilage) (protein, UniProt P17153 1-321, looked up)
Annexin A5: MAKYTRGTVTAFSPFDARADAEALRKAMKGMGTDEETILKILTSRNNAQRQEIASAFKTLFGRDLVDDLKSELTGKFETLMVSLMRPARIFDAHALKHAIKGAGTNEKVLTEILASRTPAEVQNIKQVYMQEYEANLEDKITGETSGHFQRLLVVLLQANRDPDGRVDEALVEKDAQVLFRAGELKWGTDEETFITILGTRSVSHLRRVFDKYMTISGFQIEETIDRETSGDLEKLLLAVVKCIRSVPAYFAETLYYSMKGAGTDDDTLIRVMVSRSEIDLLDIRHEFRKNFAKSLYQMIQKDTSGDYRKALLLLCGGDDE
activation of PS.Ca.Pi complex ([7]; complex prepared from Mg^2+-containing phosphate buffer): synergistically activates
